Tests used:
[1] = tested on: Drp1 S637 phosphorylation in 3T3-L1 adipocytes; experiment: Immunoblot of phospho-Drp1 (S637) in 3T3-L1 adipocytes after forskolin; format: cell-based, murine; conditions: pretreated with 50 μM RBC8 or DMSO for 30 min, then 5 μM forskolin
From the text: Immunoblotting of phospho-Drp1 S637, total Drp1 and β-Tubulin in iWAT of HFD-fed Rala^f/f (n=10) and Rala^AKO (n=13) mice. FIGS. 12B and 12C: Immunoblotting (FIG. 12B) and quantification (FIG. 12C) of phospho-Drp1(S637), total Drp1, and β-Tubulin in eWAT of HFD-fed Rala^f/f (n=8) and Rala^AKO (n=12) mice. FIGS. 12D and 12E: Immunoblotting (FIG. 12D) and quantification (FIG. 12E) of phospho-Drp1(S637), total Drp1 and β-Actin in iWAT of CD-fed mice. Non-fasted Rala^f/f (vehicle n=3, CL n=4) and Rala^AKO (vehicle n=3, CL n=5) mice fed with CD were i.p. injected with 1 mg/kg CL for 30 min. P=0.0054, P=0.0135 (FIG. 12E). FIGS. 12F and 12G: Immunoblotting (FIG. 12F) and quantification (FIG. 12G) of phospho-Drp1(S637), total Drp1, RalA, and β-Actin in fully differentiated primary adipocytes (n=4 biological samples). P=0.0085, P=0.0046 (FIG. 12G). […] FIGS. 12H and 12I: Immunoblotting (FIG. 12H) and quantification (FIG. 12I) of phospho-Drp1(S637), total Drp1, RalA, and β-Actin in immortalized adipocytes (n=4 biological samples). […] FIGS. 12J and 12K: Immunoblotting (FIG. 12J) and quantification (FIG. 12K) of phospho-Drp1(S637), total Drp1, and β-Actin in 3T3-L1 adipocytes (n=4 biological samples). […] FIGS. 12M and 12N: Quantification of phospho-HSL (S660) and HSL in primary (FIG. 12M) and immortalized adipocytes (FIG. 12N) treated with CL for indicated time (n=4 biological samples). […]

[2] = tested on: Drp1 S637 phosphorylation in human primary adipocyte cell line SGBS; experiment: Immunoblot of phospho-Drp1 (S637) in human primary adipocytes (SGBS) after forskolin; format: cell-based; conditions: SGBS cells; pretreated with 50 μM RBC8 or DMSO for 30 min, then 20 μM forskolin
Protocol: FIGS. 5A-5J. […] FIG. 5A: Quantification of phospho-Drp1 (S637) and total Drp1 in iWAT of HFD-fed Rala^f/f (n=10) and Rala^AKO (n=13) mice; P=0.0001. FIGS. 5B and 5C: Immunoblotting (FIG. 5B) and quantification (FIG. 5C) of phospho-Drp1 (S637) and total Drp1 in immortalized adipocytes (n=4 biological samples); P=0.0125 (FIG. 5C). Adipocytes were treated with 20 μM forskolin (Fsk) for indicated time. FIGS. 5D and 5E: Immunoblotting (FIG. 5D) and quantification of phospho-Drp1 (S637) and total Drp1 in human primary adipocytes (SGBS) (n=4 biological samples). […] Significance in correlation was assessed by Spearman's correlation test (FIGS. 5H, and 5J). […]
Tissues or cells were lysed or homogenized in RIPA buffer with freshly added Halt Protease and Phosphatase Inhibitor Cocktail (Thermo Fisher). […] Cleared supernatants were collected and concentrations were determined with a BCA protein assay kit (Pierce) and iTecan plate reader for quantification. […] Individual 10 proteins were detected with the specific antibodies (OXPHOS ab110413, β-tubulin 2146S, phospho-Drp1 (Ser637) 4867S, phospho-HSL (Ser660) 45804S, HSL 4107S, MYC 2276S, Drp1 8570S, phosphor-AMPK (Thr172) 2535S, AMPK 5831S, RalA BD610221, β-actin 66009-1-Ig, Flag 66008-4-Ig, GFP 66002-1-Ig, and Sec512751-1-AP). […] Bands were quantified with ImageStudio or ImageJ.

COc1ccc(OC)c(C2C(C#N)=C(N)Oc3n[nH]c(-c4ccc5ccccc5c4)c32)c1 (centres unmarked) [RBC8] was tested, and the “forskolin-stimulated Drp1 S637 phosphorylation” value [1] was “significantly increased forskolin-stimulated Drp1 S637 phosphorylation” and the “forskolin-stimulated Drp1 S637 phosphorylation” value [2] was “increased forskolin-stimulated Drp1 S637 phosphorylation”.

Reference: patent US20250319162A1, “METHODS AND MATERIALS FOR TREATING OBESITY” (Regents of the University of California, priority 2024, published 2025)
